Source: patent US5753221A, “Transformed erythrocytes, process for preparing the same, and their use in pharmaceutical compositions” (priority 1991, dated 1998)
Read-outs that look alike come from different tables or passages of the source.

Assays:
ddCTP dephosphorylation = experiment: ATP inhibition of ddCTP dephosphorylation in erythrocyte lysate; assay type: biochemical, human; details: 2 mM ATP, 100 μM ddCTP, 37° C
Description: Human erythrocytes lysates were prepared by adding 2 volumes of 3 mM sodium potassium phosphate buffer, pH 7.4, containing 3 mM mercaptoethanol, 0.5 mM EDTA to each volume of washed and packed erythrocytes. After 30 min at 4° C., the lysates were centrifuged for 1 h at 12,000×g to remove the cell membranes. The supernatants were then dialyzed overnight against 160 volumes of 0.9% (w/v) NaCl containing 10 mM Tris-HCl, pH 7.5, 10 mM MgCl2 and 0.02 mM EDTA. The dialyzed lysates were then used for the studies of ddCTP stability. Briefly, 900 μl of lysate containing ddCTP 50 μM, 100 μM, 300 μM, 1.2 mM or 1.5 mM in a final volume of 1.2 ml were incubated at 37° C. At time intervals of 0, 15, 30 and 60 min, 250 μl of the incubation mixtures were removed and extracted with 125 μl of 10% (v/v) HClO4. The perchloric acid extract was then neutralized with 23 μl of a 3M solution of K2 CO3, diluted with 60 μl of 0.1M sodium potassium phosphate buffer pH 6.5, centrifuged 10 min at 10,000 rpm in an Eppendorf microcentrifuge and 100 μl of extract analyzed by HPLC as described below. […] Integration of peak areas was obtained by means of an HP 3390A electronic integrator (Hewlett-Packard, Avondale, Pa., U.S.A.). […]

[1] = cited from earlier work
[2] = In vivo half life of loaded erythrocytes in mice (125I-ubiquitin radioactivity)
Description: Similar experiments were also performed on mice erythrocytes to do in vivo studies. The results are similar to those reported above. The in vivo half life of these erythrocytes was evaluated by following the radioactivity of ^125 I-ubiquitin-loaded erythrocytes coencapsulated with ddCTP in erythrocytes treated or not with ZnCl2 and BS^3.
In this case, the radioactivity associated with the erythrocytes was determined on blood collected from the tail vein of animals receiving the erythrocytes described above.

[3] = test system: human erythrocytes lysates; experiment: ddCTP stability in human erythrocytes lysates (HPLC); assay type: in vitro ADME; details: for time stable in erythrocyte lysate: in the presence or absence of ATP
Description: Human erythrocytes lysates were prepared by adding 2 volumes of 3 mM sodium potassium phosphate buffer, pH 7.4, containing 3 mM mercaptoethanol, 0.5 mM EDTA to each volume of washed and packed erythrocytes. After 30 min at 4° C., the lysates were centrifuged for 1 h at 12,000×g to remove the cell membranes. The supernatants were then dialyzed overnight against 160 volumes of 0.9% (w/v) NaCl containing 10 mM Tris-HCl, pH 7.5, 10 mM MgCl2 and 0.02 mM EDTA. The dialyzed lysates were then used for the studies of ddCTP stability. Briefly, 900 μl of lysate containing ddCTP 50 μM, 100 μM, 300 μM, 1.2 mM or 1.5 mM in a final volume of 1.2 ml were incubated at 37° C. At time intervals of 0, 15, 30 and 60 min, 250 μl of the incubation mixtures were removed and extracted with 125 μl of 10% (v/v) HClO4. The perchloric acid extract was then neutralized with 23 μl of a 3M solution of K2 CO3, diluted with 60 μl of 0.1M sodium potassium phosphate buffer pH 6.5, centrifuged 10 min at 10,000 rpm in an Eppendorf microcentrifuge and 100 μl of extract analyzed by HPLC as described below. […] Integration of peak areas was obtained by means of an HP 3390A electronic integrator (Hewlett-Packard, Avondale, Pa., U.S.A.). A 5 μm Supelcosil LC-18 column (250 mm×4.6 mm I.D., Supelco, Bellefonte, Pa., U.S.A.) protected by a guard column (Pelliguard LC-18, 20 mm×4.6 mm I.D., pellicular packing material, 40 μm particles) was used throughout these studies. […] All buffer solutions, as well as standards and sample solutions, were filtered through a 0.22 μm membrane filter (Millipore).
The elution conditions used to obtain the chromatograms were: 2 min 100% buffer A, 4 min up to 10% buffer B, 4 min up to 40% buffer B, 3 min up to 100% buffer B and the same conditions are maintained for 7 min. The gradient was then returned to 100% buffer A in 2 min and the initial conditions restored in 8 min. The flow-rate was 1.3 ml/min and the detection wavelength was 272 nm. The analyses were performed at room temperature. Quantitative measurements were carried out by injection of standard solutions of known concentration.

human erythrocytes [4] = details: cited from earlier work
[5] = test system: human monocytes/macrophages; experiment: Delivery of 3H-ddCTP to monocytes/macrophages by phagocytosis; assay type: cell-based; details: 3H-ddCTP-loaded erythrocytes
Description: Human monocytes/macrophages were prepared from heparinized blood by Lymphoprep (Nyegaard & Co Oslo, Norway) centrifugation. Mononuclear cells collected at the interface between the Lymphoprep and plasma were washed in 5 mM sodium potassium phosphate buffer, pH 7.4, containing 0.9% (w/v) NaCl, 5 mM glucose and finally resuspended in RPMI 1640 medium containing 10% (v/v) fetal bovine serum (FCS). 8.10^6 cells were placed into 100 mm Corning dish and incubated overnight at 37° C. and 5% CO2. Adherent monocytes/macrophages cells were separated from the lymphocytes by three washing steps in RPMI/FCS medium, counted by Tripan blue exclusion dye and incubated with ddCTP-loaded erythrocytes treated or not with ZnCl2 plus BS^3 or with unloaded erythrocytes overnight at 37° C. at a ratio of 100 erythrocytes per monocytes/macrophages. During the loading procedure ^125 I-ubiquitin (2.1 mCi/mg) was also encapsulated as an internal marker to follow phagocytosis both into ddCTP-loaded on ddCTP-unloaded erythrocytes. (Ubiquitin is a polypeptide of 8 KDa that can be easily encapsulated and is retained by the erythrocytes).
After monocytes/macrophages-erythrocytes incubation the dishes were extensively washed with RPMI 1640 medium to remove all erythrocytes not phagocytosed, followed by a 0.9% ammonium chloride washing step to remove adherent erythrocytes that were not yet phagocytosed. […]

[6] = Stability of ddCTP in intact ddCTP-loaded erythrocytes; assay type: in vitro ADME, human; details: human, erythrocytes; incubation time over 3 h, 37° C; read-out: decay of ddCTP
Description: (§1) In this case the stability of ddCTP (1 mM) in loaded erythrocytes was evaluated at 37° C. by incubation of ddCTP-loaded erythrocytes at 6% hematocrit in 0.9% (w/v) NaCl containing 10 mM glucose, 5 mM sodium, potassium phosphate buffer, pH 7.4. At different time intervals (0 to 5 h) aliquots (200 μl) of the incubation suspensions were extracted with 100 μl 10% (w/v) HClO4, centrifuged, neutralized and submitted to HPLC analyses as above. In some experiments ^3 H-ddCTP (4 Ci/mmol, Moravek Biochemicals, Inc. Brea Ca) was used.
(§2) In this case fractions of 0.3 ml were collected at the exit of the wavelength detector of the HPLC system by using an LKB fraction collector and counted in a Packard liquid scintillation Counter. Both methods (HPLC detection and liquid scintillation counting) provided similar results (i.e. ddCTP was stable in erythrocytes until ATP was maintained at physiological concentrations of 1.2 mM, while ddCTP dephosphorylation starts when ATP fall down to values lower than 1 mM.

human erythrocytes [7] = experiment: as above; assay type: in vitro ADME
Description: as §1, §2

HIV = details: cited from earlier work
cytidine deaminase = cytidine deaminase (Homo sapiens, UniProt P32320); details: cited from earlier work
Sequence of cytidine deaminase (P32320 whole entry): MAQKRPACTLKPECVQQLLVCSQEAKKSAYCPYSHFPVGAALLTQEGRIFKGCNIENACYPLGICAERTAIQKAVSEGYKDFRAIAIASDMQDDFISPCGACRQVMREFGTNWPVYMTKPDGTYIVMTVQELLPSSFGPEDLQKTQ

## Nc1ncnc2c1ncn2[C@@H]1O[C@H](COP(=O)(O)OP(=O)(O)OP(=O)(O)O)[C@@H](O)[C@H]1O [ATP]
ddCTP dephosphorylation
  effect on ddCTP dephosphorylation: completely abolishes

## Cc1cn([C@H]2C[C@H](N=[N+]=[N-])[C@@H](CO)O2)c(=O)[nH]c1=O [AZT, 3'-azido-3'-deoxythymidine]
[1]; human, in vivo
  short plasma half-life (approximate): approximately 1 h

## [Cl-].[Cl-].[Zn+2] [ZnCl2]
[2]
  lowest ZnCl2 concentration able to modify red cell survival: 0.1 mM

## Nc1ncnc2c1ncn2[C@H]1CC[C@@H](COP(=O)(O)OP(=O)(O)OP(=O)(O)O)O1 [ddATP, 2',3'-dideoxyadenosine-5'-triphosphate]
[3]; 37° C
  time stable in erythrocyte lysate: at least 2 h

## Nc1ccn([C@H]2CC[C@@H](COP(=O)(O)O)O2)c(=O)n1 [ddCMP, 2',3'-dideoxycytidine-5'-phosphate]
Human erythrocytes [4]
  fate of ddCMP encapsulated in human erythrocytes: dephosphorylated by endogenous pyrimidine nucleotidases and subsequently released by the cells as ddCyd

## Nc1ccn([C@H]2CC[C@@H](COP(=O)(O)OP(=O)(O)OP(=O)(O)O)O2)c(=O)n1 [ddCTP, 2',3'-dideoxycytidine-5'-triphosphate]
[5]
  concentration of ddCTP in monocytes/macrophages after phagocytosis: 2.88 µM
[6]
  metabolised at 3 h, 1000 µM: 20%
Human erythrocytes [7]
  ATP concentration below which ddCTP dephosphorylation starts: lower than 1 mM
Human erythrocytes [7]; 37° C, 1 mM ddCTP, 6% hematocrit
  stability of ddCTP in intact cells: stable even at 37 °C
[3]
  pH of maximum dephosphorylation rate: 8.4
[3]; 37° C
  Vmax of dephosphorylation of ddCTP to ddCDP: 3±0.5 nmol/min/g HB
[3]; 37° C, read-out: Km of dephosphorylation of ddCTP to ddCDP
  Km: 140 µM
[3]; pH 7.2 (physiological value)
  dephosphorylation rate relative to maximum rate: 50%

## Nc1ccn([C@H]2CC[C@@H](CO)O2)c(=O)n1 [ddCyd, 2',3'-Dideoxycytidine]
HIV; in vitro
  concentration that completely protects target helper/inducer T cells against HIV infections: ≥ 0.5 µM
HIV; low multiplicity of infection
  concentration that can suppress the virus: ≥ 10 nM
[1]; 0.09 mg/Kg, intravenous, 4 h, read-out: plasma level at four hours after intravenous administration
  concentration: < 100 nM
[1]; human, in vivo
  bioavailability: good bioavailability
  short plasma half-life (approximate): approximately 1 h
[1]; patients receiving 0.09 mg/Kg, read-out: plasma level during the infusion
  concentration: > 500 nM
Cytidine deaminase
  resistance to cytidine deaminase: resistant to cytidine deaminase

## Nc1nc2c(ncn2[C@H]2CC[C@@H](COP(=O)(O)OP(=O)(O)OP(=O)(O)O)O2)c(=O)[nH]1 [ddGTP, 2',3'-dideoxyguanosine-5'-triphosphate]
[3]; 37° C
  time stable in erythrocyte lysate: at least 2 h

## O=c1[nH]cnc2c1ncn2[C@H]1CC[C@@H](COP(=O)(O)OP(=O)(O)OP(=O)(O)O)O1 [ddITP, 2',3'-dideoxyinosine-5'-triphosphate]
[3]; 37° C
  time stable in erythrocyte lysate: at least 2 h
